How the values were obtained:
[1] = target: GDP-bound HRAS wild-type protein (Homo sapiens, UniProt P01112); experiment: Binding to HRAS by surface plasmon resonance (SPR), Single Cycle Kinetics; settings: SPR; GDP-bound HRAS wild-type protein vs GDP-bound KRAS wild-type protein; KD ratio class
[2] = target: GDP-bound KRAS wild-type protein (Homo sapiens, UniProt P01116); experiment: Binding to KRAS by surface plasmon resonance (SPR), Single Cycle Kinetics; settings: SPR, Single Cycle Kinetics, 1:1 binding model; GDP-bound KRAS wild-type protein; read-out: KRAS KD
[3] = test system: human lung cancer strain NCI-H441;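 note: cell proliferation inhibition after four days measured by CellTiter-Glo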
[4] = target: GDP-bound NRAS wild-type protein (Homo sapiens, UniProt P01111); experiment: Binding to NRAS by surface plasmon resonance (SPR), Single Cycle Kinetics; settings: SPR; GDP-bound NRAS wild-type protein vs GDP-bound KRAS wild-type protein; KD ratio class
GDP-bound NRAS wild-type protein, sequence (P01111 whole entry): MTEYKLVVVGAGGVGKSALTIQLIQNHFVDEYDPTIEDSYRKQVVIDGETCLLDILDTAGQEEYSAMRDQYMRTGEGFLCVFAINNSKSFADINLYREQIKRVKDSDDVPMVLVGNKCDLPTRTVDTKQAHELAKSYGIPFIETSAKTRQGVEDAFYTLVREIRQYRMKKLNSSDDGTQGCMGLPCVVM

GDP-bound HRAS wild-type protein, sequence (P01112 whole entry): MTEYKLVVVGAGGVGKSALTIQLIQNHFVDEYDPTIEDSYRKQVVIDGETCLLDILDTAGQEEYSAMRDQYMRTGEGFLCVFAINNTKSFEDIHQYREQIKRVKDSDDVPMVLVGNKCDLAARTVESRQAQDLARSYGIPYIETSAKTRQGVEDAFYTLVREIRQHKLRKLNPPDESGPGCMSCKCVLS
GDP-bound KRAS wild-type protein, sequence (P01116 whole entry): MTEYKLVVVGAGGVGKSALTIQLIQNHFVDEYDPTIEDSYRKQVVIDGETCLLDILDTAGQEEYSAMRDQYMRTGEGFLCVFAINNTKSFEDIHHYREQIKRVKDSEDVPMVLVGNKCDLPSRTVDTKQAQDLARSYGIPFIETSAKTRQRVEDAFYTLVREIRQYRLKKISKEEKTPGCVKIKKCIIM

Row | SMILES | HRAS/KRAS (ratio of KD value for HRAS to KD value for KRAS) [1] | Kd [2] | IC50 [3] | NRAS/KRAS (ratio of KD value for NRAS to KD value for KRAS) [4]
1 | CCO[C@@H]1C[C@H]2C(=O)NC3(CCC3)C(=O)N(C)[C@@H](C3CCCC3)C(=O)N(C)[C@H](C(=O)N3CCCCC3)CC(=O)N(C)[C@@H](CC3CC3)C(=O)N[C@@H]([C@@H](C)CC)C(=O)N(C)CC(=O)N(C)[C@H]3C/C=C\CCN(C3=O)[C@@H](Cc3ccc(C(F)(F)F)cc3)C(=O)N(C)CC(=O)N[C@@H](CCc3cc(F)c(C(F)(F)F)c(F)c3)C(=O)N2C1 [PP1291] | A (a compound having 10 or more and less than 20 is denoted as A) | 0.24 nM | 16.7 nM | A (a compound having 10 or more and less than 20 is denoted as A)
2 | CCO[C@@H]1C[C@H]2C(=O)NC3(CCC3)C(=O)N(C)[C@@H](C3CCCC3)C(=O)N(C)[C@H](C(=O)N3CCCCC3)CC(=O)N(C)[C@@H](C)C(=O)N[C@@H]([C@@H](C)CC)C(=O)N(C)CC(=O)N(C)[C@H]3C/C=C\CCN(C3=O)[C@@H](Cc3ccc(C(F)(F)F)cc3)C(=O)N(C)CC(=O)N[C@@H](CCc3cc(F)c(C(F)(F)F)c(F)c3)C(=O)N2C1 [PP1292] | A (a compound having 10 or more and less than 20 is denoted as A) | 0.16 nM | 24.6 nM | A (a compound having 10 or more and less than 20 is denoted as A)
3 | CCC[C@H]1C(=O)N[C@@H]([C@@H](C)CC)C(=O)N(C)CC(=O)N(C)[C@H]2C/C=C\CCN(C2=O)[C@@H](Cc2ccc(C(F)(F)F)cc2)C(=O)N(C)CC(=O)N[C@@H](CCc2cc(F)c(C(F)(F)F)c(F)c2)C(=O)N2C[C@H](OCC)C[C@H]2C(=O)NC2(CCC2)C(=O)N(C)[C@@H](C2CCCC2)C(=O)N(C)[C@H](C(=O)N2CCCCC2)CC(=O)N1C [PP1294] | A (a compound having 10 or more and less than 20 is denoted as A) | 0.29 nM | 10 nM | A (a compound having 10 or more and less than 20 is denoted as A)
4 | CCO[C@@H]1C[C@H]2C(=O)NC3(CCC3)C(=O)N(C)[C@@H](C3CCCC3)C(=O)N(C)[C@H](C(=O)N3CCCC3)CC(=O)N(C)[C@@H](CC(C)C)C(=O)N[C@@H]([C@@H](C)CC)C(=O)N(C)CC(=O)N(C)[C@H]3C/C=C\CCN(C3=O)[C@@H](Cc3ccc(C(F)(F)F)cc3)C(=O)N(C)CC(=O)N[C@@H](CCc3cc(F)c(C(F)(F)F)c(F)c3)C(=O)N2C1 [PP1295, (2S,8S,12R,14S,20S,23S,27S,30S,36S,38Z)-20-cyclopentyl-8-[2-[3,5-difluoro-4-(trifluoromethyl)phenyl]ethyl]-12-ethoxy-27-isobutyl-4,19,22,26,32,35-hexamethyl-30-[(1S)-1-methylpropyl]-23-(pyrrolidine-1-carbonyl)-2-[[4-(trifluoromethyl)phenyl]methyl]spiro[1,4,7,10,16,19,22,26,29,32,35-undecazatricyclo[34.5.1.0^10,14]dotetracont-38-ene-17,1′-cyclobutane]-3,6,9,15,18,21,25,28,31,34,42-undecone] | A (a compound having 10 or more and less than 20 is denoted as A) | 0.12 nM | 6.2 nM | AA (a compound having 20 or more is denoted as AA)
5 | CCO[C@@H]1C[C@H]2C(=O)NC3(CCC3)C(=O)N(C)[C@@H](C3CCCC3)C(=O)N(C)[C@H](C(=O)N3CCCC3)CC(=O)N(C)[C@@H](CC3CC3)C(=O)N[C@@H]([C@@H](C)CC)C(=O)N(C)CC(=O)N(C)[C@H]3C/C=C\CCN(C3=O)[C@@H](Cc3ccc(C(F)(F)F)cc3)C(=O)N(C)CC(=O)N[C@@H](CCc3cc(F)c(C(F)(F)F)c(F)c3)C(=O)N2C1 [PP1296] | A (a compound having 10 or more and less than 20 is denoted as A) | 0.12 nM | 14.7 nM | AA (a compound having 20 or more is denoted as AA)
6 | CCO[C@@H]1C[C@H]2C(=O)NC3(CCC3)C(=O)N(C)[C@@H](C3CCCC3)C(=O)N(C)[C@H](C(=O)N3CCCC3)CC(=O)N(C)[C@@H](C)C(=O)N[C@@H]([C@@H](C)CC)C(=O)N(C)CC(=O)N(C)[C@H]3C/C=C\CCN(C3=O)[C@@H](Cc3ccc(C(F)(F)F)cc3)C(=O)N(C)CC(=O)N[C@@H](CCc3cc(F)c(C(F)(F)F)c(F)c3)C(=O)N2C1 [PP1297, (2S,8S,12R,14S,20S,23S,27S,30S,36S,38Z)-20-cyclopentyl-8-[2-[3,5-difluoro-4-(trifluoromethyl)phenyl]ethyl]-12-ethoxy-4,19,22,26,27,32,35-heptamethyl-30-[(1S)-1-methylpropyl]-23-(pyrrolidine-1-carbonyl)-2-[[4-(trifluoromethyl)phenyl]methyl]spiro[1,4,7,10,16,19,22,26,29,32,35-undecazatricyclo[34.5.1.0^10,14]dotetracont-38-ene-17,1′-cyclobutane]-3,6,9,15,18,21,25,28,31,34,42-undecone] | A (a compound having 10 or more and less than 20 is denoted as A) | 0.087 nM | 23.1 nM | AA (a compound having 20 or more is denoted as AA)
7 | CCO[C@@H]1C[C@H]2C(=O)NC3(CCC3)C(=O)N(C)[C@@H](C3CCCC3)C(=O)N(C)[C@H](C(=O)N3CCCC3)CC(=O)N(C)[C@@H](CC(F)F)C(=O)N[C@@H]([C@@H](C)CC)C(=O)N(C)CC(=O)N(C)[C@H]3C/C=C\CCN(C3=O)[C@@H](Cc3ccc(C(F)(F)F)cc3)C(=O)N(C)CC(=O)N[C@@H](CCc3cc(F)c(C(F)(F)F)c(F)c3)C(=O)N2C1 [PP1298] | A (a compound having 10 or more and less than 20 is denoted as A) | 0.13 nM | 11.4 nM | AA (a compound having 20 or more is denoted as AA)
8 | CCC[C@H]1C(=O)N[C@@H]([C@@H](C)CC)C(=O)N(C)CC(=O)N(C)[C@H]2C/C=C\CCN(C2=O)[C@@H](Cc2ccc(C(F)(F)F)cc2)C(=O)N(C)CC(=O)N[C@@H](CCc2cc(F)c(C(F)(F)F)c(F)c2)C(=O)N2C[C@H](OCC)C[C@H]2C(=O)NC2(CCC2)C(=O)N(C)[C@@H](C2CCCC2)C(=O)N(C)[C@H](C(=O)N2CCCC2)CC(=O)N1C [PP1299, (2S,8S,12R,14S,20S,23S,27S,30S,36S,38Z)-20-cyclopentyl-8-[2-[3,5-difluoro-4-(trifluoromethyl)phenyl]ethyl]-12-ethoxy-4,19,22,26,32,35-hexamethyl-30-[(1S)-1-methylpropyl]-27-propyl-23-(pyrrolidine-1-carbonyl)-2-[[4-(trifluoromethyl)phenyl]methyl]spiro[1,4,7,10,16,19,22,26,29,32,35-undecazatricyclo[34.5.1.0^10,14]dotetracont-38-ene-17,1′-cyclobutane]-3,6,9,15,18,21,25,28,31,34,42-undecone] | A (a compound having 10 or more and less than 20 is denoted as A) | 0.14 nM | 11 nM | A (a compound having 10 or more and less than 20 is denoted as A)
9 | CCC[C@H]1C(=O)N[C@@H]([C@@H](C)CC)C(=O)N(C)CC(=O)N(C)[C@H]2C/C=C\CCN(C2=O)[C@@H](Cc2ccc(C(F)(F)F)cc2)C(=O)N(C)CC(=O)N[C@@H](CCc2cc(F)c(C(F)(F)F)c(F)c2)C(=O)N2C[C@H](OCC)C[C@H]2C(=O)NC2(CCC2)C(=O)N(C)[C@@H](C2CCCC2)C(=O)N(C)[C@H](C(=O)N2CC3CCC(C2)O3)CC(=O)N1C [PP1315] | A (a compound having 10 or more and less than 20 is denoted as A) | 0.34 nM | 34.5 nM | AA (a compound having 20 or more is denoted as AA)
10 | CCO[C@@H]1C[C@H]2C(=O)NC3(CCC3)C(=O)N(C)[C@@H](C3CCCC3)C(=O)N(C)[C@H](C(=O)N(C)CCOC)CC(=O)N(C)[C@@H](CC3CC3)C(=O)N[C@@H]([C@@H](C)CC)C(=O)N(C)CC(=O)N(C)[C@H]3C/C=C\CCN(C3=O)[C@@H](Cc3ccc(C(F)(F)F)cc3)C(=O)N(C)CC(=O)N[C@@H](CCc3ccc(Cl)c(Cl)c3)C(=O)N2C1 [PP1329] | A (a compound having 10 or more and less than 20 is denoted as A) | 0.24 nM | 34.5 nM | AA (a compound having 20 or more is denoted as AA)
11 | CC[C@H](C)[C@@H]1NC(=O)[C@H](CC)N(C)C(=O)C[C@@H](C(=O)N(C)C)N(C)C(=O)[C@H](C2CCCC2)N(C)C(=O)C2(CCCC2)NC(=O)[C@@H]2CCCN2C(=O)[C@H](CCc2ccc(C(F)(F)F)c(Cl)c2)NC(=O)CN(C)C(=O)[C@H](Cc2ccc(C(F)(F)F)cc2)N2C[C@H](C)CC[C@@H](C2=O)N(C)C(=O)CN(C)C1=O [PP1336] | B (a compound having 3 or more and less than 10 is denoted as B) | 0.074 nM | 10.8 nM | B (a compound having 3 or more and less than 10 is denoted as B)
12 | CC[C@H](C)[C@@H]1NC(=O)[C@H](CC)N(C)C(=O)C[C@@H](C(=O)N2CCOCC2)N(C)C(=O)[C@H](C2CCCC2)N(C)C(=O)C2(CCCC2)NC(=O)[C@@H]2CCCN2C(=O)[C@H](CCc2ccc(C(F)(F)F)c(Cl)c2)NC(=O)CN(C)C(=O)[C@H](Cc2ccc(C(F)(F)F)cc2)N2C[C@H](C)CC[C@@H](C2=O)N(C)C(=O)CN(C)C1=O [PP1337] | B (a compound having 3 or more and less than 10 is denoted as B) | 0.17 nM | 29.8 nM | B (a compound having 3 or more and less than 10 is denoted as B)

Reference: US20240158446A1, “CYCLIC COMPOUND HAVING SELECTIVE INHIBITORY ACTION ON KRAS OVER HRAS AND NRAS” (CHUGAI SEIYAKU KABUSHIKI KAISHA, priority 2021, published 2024)
